Measured values: patent publication US20080063660A1, “Method to reduce the physiologic effects of drugs on mammals” (Anarco, Inc., priority 1993, published 2008)
Where a name gives a salt, the structure may show the parent alone.

Key:
rabbits = assay: intravenous cocaine-HCl challenge of rabbits immunized with COALB
Description: Rabbits were immunized with COALB by subcutaneous injection of 100 μg of the benzoylecgonine-conjugated immunogen every two weeks for a period of two months (four injections). Freund's complete adjuvant was used in the first injection and Freund's incomplete adjuvant was utilized for subsequent injections.

[1] = stated in brackets beside the i.v. challenge dose; cited from earlier work

SMILES: COC(=O)[C@H]1[C@@H](OC(=O)c2ccccc2)C[C@@H]2CC[C@H]1N2C [cocaine-HCl]
- physiologic/toxic effects of cocaine in control (un-immunized) rabbits (rabbits; cocaine-HCl 2 mg/kg i.v. in sterile saline): marked grande maul convulsions
- time to recovery of control rabbits after cocaine (rabbits; cocaine-HCl 2 mg/kg i.v., un-immunized rabbits): 10 to 15 min
- LD50 [1]: 12 mg/kg
